From patent publication US10716797B2, “Steroid alkaloids and compositions and kits thereof” (priority 2013, dated 2020)
“Also recorded” adds a separate entry of the source.

Tested on: Listeria monocytogenes ATCC 13932 SCVs
Experiment: Time-kill experiments, Listeria monocytogenes SCV
Assay type: cell-based
Details: 8 μg/mL; 8 h and 24 h; hydrochloride
Procedure: Time-kill experiments were performed in order to determine whether the effect of test compounds on SCVs of bacterial species of the Firmicutes phylum is bacteriostatic (prevents growth) or bactericidal (kills cells).
Listeria monocytogenes ATCC 13932 SCVs were produced by plating a large inoculum (˜10^5 bacterial cells) on brain heart infusion agar (BHIA) plates containing various amounts of gentamicin in order to create a selective pressure for the generation of electron transport-deficient bacteria with the SCV phenotype, which are known to be less susceptible to aminoglycoside antibiotics (e.g., gentamicin). Indeed, aminoglycosides require the proton-motive force in order to penetrate the bacterium (Bryan and Kwan, 1981). As expected, SCV isolates were collected from such selective plates and were then passaged on drug-free medium to assess stability of the SCV phenotype. SCV isolates keeping the SCV phenotype after several passages on drug-free medium were then used for experiments described below.
One of the L. monocytogenes SCV described above was used in time-kill experiments as described in Example 22. […] At some time-points during growth at 35° C. (225 RPM), bacteria were sampled, serially diluted and plated on BHIA for colony-forming unit (CFU) determinations (i.e., viable bacterial counts). Plates were incubated for 48 h at 35° C. […]

## 3-(N-aminoethyl)-aminotomatidine hydrochloride [Compound 14]
  bactericidal effect on L. monocytogenes SCV (CFU): efficiently kills; also recorded: superior bactericidal activity
